Results published in US20250073340A1, “SPIROCYCLIC MDM2 MODULATOR AND USES THEREOF” (Newave Pharmaceutical Inc., priority 2021, published 2025).

Molecular target: MDM2 (Homo sapiens (Human), UniProt Q00987)
Assay: In vitro MDM2 HTRF assay (inhibition of p53-MDM2 interaction)
Format: binding
Settings: GST-MDM2 / biotinylated p53 peptide

Sequence of MDM2 (Q00987 whole entry): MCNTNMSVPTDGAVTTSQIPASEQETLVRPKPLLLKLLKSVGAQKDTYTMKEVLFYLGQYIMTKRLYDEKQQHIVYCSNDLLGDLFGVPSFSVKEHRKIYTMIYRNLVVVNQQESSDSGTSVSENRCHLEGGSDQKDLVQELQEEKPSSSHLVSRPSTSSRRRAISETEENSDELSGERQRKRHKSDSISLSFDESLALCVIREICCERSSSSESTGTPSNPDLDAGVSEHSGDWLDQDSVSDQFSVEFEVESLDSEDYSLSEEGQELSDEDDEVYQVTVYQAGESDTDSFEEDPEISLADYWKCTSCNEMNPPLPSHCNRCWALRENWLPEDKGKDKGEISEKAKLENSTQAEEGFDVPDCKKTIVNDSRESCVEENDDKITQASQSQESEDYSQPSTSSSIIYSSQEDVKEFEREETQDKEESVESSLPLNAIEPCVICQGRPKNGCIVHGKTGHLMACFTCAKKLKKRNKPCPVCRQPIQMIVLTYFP

Row | Compound | IC50 [nM]
1 | COc1cc(N2CCC[C@@H](C#Cc3cccc4c3CN([C@@H]3CCC(=O)NC3=O)C4=O)C2)ccc1NC(=O)[C@@H]1N[C@@H](CC(C)(C)C)[C@@]2(CNc3cc(Cl)ccc32)[C@H]1c1cccc(Cl)c1F [Example 31, (2′S,3S,4′S,5′R)-6-chloro-4′-(3-chloro-2-fluorophenyl)-N-(4-((S)-3-((2-((R)-2,6-dioxopiperidin-3-yl)-1-oxoisoindolin-4-yl)ethynyl)piperidin-1-yl)-2-methoxyphenyl)-2′-neopentylspiro[indoline-3,3′-pyrrolidine]-5′-carboxamide] | 6.1
2 | COc1cc(C(=O)NCCCC#Cc2cccc3c2CN(C2CCC(=O)N(C)C2=O)C3=O)ccc1NC(=O)[C@@H]1N[C@@H](CC(C)(C)C)[C@@]2(CNc3cc(Cl)ccc32)[C@H]1c1cccc(Cl)c1F (stereo partly drawn) [Example 19, (2′S,3S,4′S,5′R)-6-chloro-4′-(3-chloro-2-fluorophenyl)-2′-(2,2-dimethylpropyl)-N-[2-methoxy-4-({5-[2-(1-methyl-2,6-dioxopiperidin-3-yl)-1-oxo-3H-isoindol-4-yl]pent-4-yn-1-yl}carbamoyl)phenyl]-1,2-dihydrospiro[indole-3,3′-pyrrolidine]-5′-carboxamide] | 2.03
3 | COc1cc(C(N)=O)ccc1NC(=O)[C@H]1N[C@H](CC(C)(C)C)[C@]2(CNc3cc(Cl)ncc32)[C@@H]1c1cccc(Cl)c1F [Example 10, (2R,3R,4R,5S)—N-(4-carbamoyl-2-methoxyphenyl)-6′-chloro-4-(3-chloro-2-fluorophenyl)-2-(2,2-dimethylpropyl)-1′,2′-dihydrospiro[pyrrolidine-3,3′-pyrrolo[3,2-c]pyridine]-5-carboxamide] | 276

System: BCL-2-dependent acute lymphoblastic leukemia (ALL) cell line RS4;11 overexpressing Bcl-2 G101V
Assay: cells
Format: cell-based
Settings: Homo sapiens, RS4-11, 72 h, read-out: RS4;11-G101V IC50
Method: Biological Example 2: In vitro Anti-proliferation Assay in BCL-2-dependent acute lymphoblastic leukemia (ALL) cell line RS4; 11 overexpressing Bcl-2 G101V
Cell antiproliferation was assayed by PerkinElmer ATPlite™ Luminescence Assay System. Briefly, the various test cancer cell lines were plated at a density of about 1×10^4 cells per well in Costar 96-well plates, and were incubated with different concentrations of compounds for about 72 hours in medium supplemented with 5% FBS or 10% normal human serum (NHS). One lyophilized substrate solution vial was then reconstituted by adding 5 mL of substrate buffer solution, and was agitated gently until the solution was homogeneous. About 50 μL of mammalian cell lysis solution was added to 100 μL of cell suspension per well of a microplate, and the plate was shaken for about five minutes in an orbital shaker at −700 rpm. This procedure was used to lyse the cells and to stabilize the ATP. Next, 50 μL substrate solution was added to the wells and microplate was shaken for five minutes in an orbital shaker at −700 rpm. Finally, the luminescence was measured by a PerkinElmer TopCount® Microplate Scintillation Counter. Such assays, carried out with a range of doses of test compounds, allowed the determination of the cellular anti-antiproliferative IC50 of the compounds of the present invention.

Row | Compound | IC50 [nM]
4 | COc1cc(C(N)=O)ccc1NC(=O)[C@@H]1N[C@@H](CC(C)(C)C)[C@@]2(CNc3cc(Cl)ccc32)[C@H]1c1cccc(Cl)c1F [Example 1, (2′S,3S,4′S,5′R)—N-(4-carbamoyl-2-methoxyphenyl)-6-chloro-4′-(3-chloro-2-fluorophenyl)-2′-neopentylspiro[indoline-3,3′-pyrrolidine]-5′-carboxamide] | 33

Same assay, conditions: Homo sapiens, RS4-11; about 72 hours, ATPlite luminescence; read-out: RS4;11-G101V IC50

Row | Compound | IC50 [nM]
5 | COc1cc(C(N)=O)ccc1NC(=O)[C@@]1(C)N[C@H](CC(C)(C)C)[C@]2(CNc3cc(Cl)ccc32)[C@@H]1c1cccc(Cl)c1F [Example 8, (2′R,3R,4′R,5′S)—N-(4-carbamoyl-2-methoxyphenyl)-6-chloro-4′-(3-chloro-2-fluorophenyl)-2′-(2,2-dimethylpropyl)-5′-methyl-1,2-dihydrospiro[indole-3,3′-pyrrolidine]-5′-carboxamide] | 127
6 | COc1cc(C(=O)N2CCCC[C@@H]2C#CC#Cc2cccc3c2CN(C2CCC(=O)NC2=O)C3=O)ccc1NC(=O)[C@@H]1N[C@@H](CC(C)(C)C)[C@@]2(CNc3cc(Cl)ccc32)[C@H]1c1cccc(Cl)c1F (stereo partly drawn) [Example 46, (2′S,3S,4′S,5′R)-6-chloro-4′-(3-chloro-2-fluorophenyl)-2′-(2,2-dimethylpropyl)-N-{4-[(2R)-2-{4-[2-(2,6-dioxopiperidin-3-yl)-1-oxo-3H-isoindol-4-yl]buta-1,3-diyn-1-yl}piperidine-1-carbonyl]-2-methoxyphenyl}-1,2-dihydrospiro[indole-3,3′-pyrrolidine]-5′-carboxamide] | > 1000
7 | COc1cc(C(=O)N2CCC[C@]3(C[C@H]3C#Cc3cccc4c3CN([C@H]3CCC(=O)NC3=O)C4=O)C2)ccc1NC(=O)[C@@H]1N[C@@H](CC(C)(C)C)[C@@]2(CNc3cc(Cl)ccc32)[C@H]1c1cccc(Cl)c1F [Example 63, (2′S,3S,4′S,5′R)-6-chloro-4′-(3-chloro-2-fluorophenyl)-2′-(2,2-dimethylpropyl)-N-{4-[(1S,3R)-1-(2-{2-[(3S)-2,6-dioxopiperidin-3-yl]-1-oxo-3H-isoindol-4-yl}ethynyl)-5-azaspiro[2.5]octane-5-carbonyl]-2-methoxyphenyl}-1,2-dihydrospiro[indole-3,3′-pyrrolidine]-5′-carboxamide] | 41.6
8 | COc1cc(C(=O)N2CC(C#Cc3cccc4c3CN(C3CCC(=O)NC3=O)C4=O)C2)ccc1NC(=O)[C@@H]1N[C@@H](CC(C)(C)C)[C@@]2(CNc3cc(Cl)ccc32)[C@H]1c1cccc(Cl)c1F (stereo partly drawn) [Example 55, (2′S,3S,4′S,5′R)-6-chloro-4′-(3-chloro-2-fluorophenyl)-2′-(2,2-dimethylpropyl)-N-[4-(3-{2-[2-(2,6-dioxopiperidin-3-yl)-1-oxo-3H-isoindol-4-yl]ethynyl}azetidine-1-carbonyl)-2-methoxyphenyl]-1,2-dihydrospiro[indole-3,3′-pyrrolidine]-5′-carboxamide] | 11.2
9 | COc1cc(C(=O)N2CCC[C@@]3(C[C@H]3C#Cc3cccc4c3CN([C@H]3CCC(=O)NC3=O)C4=O)C2)ccc1NC(=O)[C@@H]1N[C@@H](CC(C)(C)C)[C@@]2(CNc3cc(Cl)ccc32)[C@H]1c1cccc(Cl)c1F [Example 61, (2′S,3S,4′S,5′R)-6-chloro-4′-(3-chloro-2-fluorophenyl)-2′-(2,2-dimethylpropyl)-N-{4-[(1S,3S)-1-(2-{2-[(3S)-2,6-dioxopiperidin-3-yl]-1-oxo-3H-isoindol-4-yl}ethynyl)-5-azaspiro[2.5]octane-5-carbonyl]-2-methoxyphenyl}-1,2-dihydrospiro[indole-3,3′-pyrrolidine]-5′-carboxamide] | 5.75
10 | COc1cc(C(=O)N2CCC[C@]3(C[C@@H]3C#Cc3cccc4c3CN([C@H]3CCC(=O)NC3=O)C4=O)C2)ccc1NC(=O)[C@@H]1N[C@@H](CC(C)(C)C)[C@@]2(CNc3cc(Cl)ccc32)[C@H]1c1cccc(Cl)c1F [Example 64, (2′S,3S,4′S,5′R)-6-chloro-4′-(3-chloro-2-fluorophenyl)-2′-(2,2-dimethylpropyl)-N-{4-[(1R,3R)-1-(2-{2-[(3S)-2,6-dioxopiperidin-3-yl]-1-oxo-3H-isoindol-4-yl}ethynyl)-5-azaspiro[2.5]octane-5-carbonyl]-2-methoxyphenyl}-1,2-dihydrospiro[indole-3,3′-pyrrolidine]-5′-carboxamide] | 188
11 | COc1cc(C(=O)N2CCCC[C@H]2C#CC#Cc2cccc3c2CN(C2CCC(=O)NC2=O)C3=O)ccc1NC(=O)[C@@H]1N[C@@H](CC(C)(C)C)[C@@]2(CNc3cc(Cl)ccc32)[C@H]1c1cccc(Cl)c1F (stereo partly drawn) [Example 47, (2′S,3S,4′S,5′R)-6-chloro-4′-(3-chloro-2-fluorophenyl)-2′-(2,2-dimethylpropyl)-N-{4-[(2S)-2-{4-[2-(2,6-dioxopiperidin-3-yl)-1-oxo-3H-isoindol-4-yl]buta-1,3-diyn-1-yl}piperidine-1-carbonyl]-2-methoxyphenyl}-1,2-dihydrospiro[indole-3,3′-pyrrolidine]-5′-carboxamide] | > 1000
12 | COc1cc(C(=O)N2CCC[C@@]3(C[C@@H]3C#Cc3cccc4c3CN([C@H]3CCC(=O)NC3=O)C4=O)C2)ccc1NC(=O)[C@@H]1N[C@@H](CC(C)(C)C)[C@@]2(CNc3cc(Cl)ccc32)[C@H]1c1cccc(Cl)c1F [Example 62, (2′S,3S,4′S,5′R)-6-chloro-4′-(3-chloro-2-fluorophenyl)-2′-(2,2-dimethylpropyl)-N-{4-[(1R,3S)-1-(2-{2-[(3S)-2,6-dioxopiperidin-3-yl]-1-oxo-3H-isoindol-4-yl}ethynyl)-5-azaspiro[2.5]octane-5-carbonyl]-2-methoxyphenyl}-1,2-dihydrospiro[indole-3,3′-pyrrolidine]-5′-carboxamide] | 40.2
13 | COc1cc(C(=O)O)ccc1NC(=O)[C@@H]1N[C@@H](CC(C)(C)C)[C@](C#N)(c2ccc(Cl)cc2F)[C@H]1c1cccc(Cl)c1F [RG7388, reference compound] | 110
14 | COc1cc(C(=O)N[C@@H]2CCCC[C@@H]2CC#Cc2cccc3c2CN(C2CCC(=O)NC2=O)C3=O)ccc1NC(=O)[C@@H]1N[C@@H](CC(C)(C)C)[C@@]2(CNc3cc(Cl)ccc32)[C@H]1c1cccc(Cl)c1F (stereo partly drawn) [Example 41, (2′S,3S,4′S,5′R)-6-chloro-4′-(3-chloro-2-fluorophenyl)-2′-(2,2-dimethylpropyl)-N-(4-{[(1R,2R)-2-{3-[2-(2,6-dioxopiperidin-3-yl)-1-oxo-3H-isoindol-4-yl]prop-2-yn-1-yl}cyclohexyl]carbamoyl}-2-methoxyphenyl)-1,2-dihydrospiro[indole-3,3′-pyrrolidine]-5′-carboxamide] | 54.3
15 | COc1cc(C(=O)N[C@H]2CCCC[C@H]2CC#Cc2cccc3c2CN(C2CCC(=O)NC2=O)C3=O)ccc1NC(=O)[C@@H]1N[C@@H](CC(C)(C)C)[C@@]2(CNc3cc(Cl)ccc32)[C@H]1c1cccc(Cl)c1F (stereo partly drawn) [Example 40, (2′S,3S,4′S,5′R)-6-chloro-4′-(3-chloro-2-fluorophenyl)-2′-(2,2-dimethylpropyl)-N-(4-{[(1S,2S)-2-{3-[2-(2,6-dioxopiperidin-3-yl)-1-oxo-3H-isoindol-4-yl]prop-2-yn-1-yl}cyclohexyl]carbamoyl}-2-methoxyphenyl)-1,2-dihydrospiro[indole-3,3′-pyrrolidine]-5′-carboxamide] | 11.4
